Where two headings read alike, the source gives them in different places.
Legend:
Mannheimia haemolytica [1] = conditions: Mannheimia haemolytica reference strain; cited from earlier work
Histophilus somni [2] = conditions: Histophilus somni reference strain; cited from earlier work
Pasteurella multocida [3] = conditions: Pasteurella multocida reference strain; cited from earlier work
Mannheimia haemolytica [4] = assay: Useful life of the antibiotic (time plasma concentration is above MIC90); format: in vivo; conditions: time plasma florfenicol is above MIC90 1 μg/mL for Mannheimia haemolytica; bovines, subcutaneous
Procedure: (§1) Blood samples are taken regularly during the 7 days following this injection. This is followed by a wash-out period of 20 days. The animals then receive a subcutaneous injection of 0.5 mg/kg meloxicam (Metacam®, Boehringer Ingelheim, 5 mg of meloxicam/mL). Blood samples are taken regularly during the 7 days following this injection. This is followed by a new wash-out period of 20 days. […] Blood samples are taken regularly during the 7 days following this injection. […] The useful life of an antibiotic is the time (in hours) during which the plasma concentration of a given antibiotic is above its MIC90 for the 3 representative microbes Mannheimia haemolytica, Histophilus somni, Pasteurella multocida.

Pasteurella multocida [5] = assay: as above; format: in vivo; conditions: time plasma florfenicol is above MIC90 0.5 μg/mL for Pasteurella multocida; bovines, subcutaneous
Procedure: as §1

Histophilus somni [6] = assay: as above; format: in vivo; conditions: time plasma florfenicol is above MIC90 0.2 μg/mL for Histophilus somni; bovines, subcutaneous
Procedure: as §1

[7] = Tests of equivalence of bioavailability: plasma pharmacokinetic parameters after subcutaneous injection; format: in vivo, bovines; conditions: both sexes, bovine (cattle), sc
Procedure: 24 young male and female bovines aged 11 months and with an average weight of 220 kg are treated individually with 1 subcutaneous injection of 40 mg/kg of florfenicol (Nuflor 450®—Merck, 450 mg of florfenicol/mL). Blood samples are taken regularly during the 7 days following this injection. This is followed by a wash-out period of 20 days. The animals then receive a subcutaneous injection of 0.5 mg/kg meloxicam (Metacam®, Boehringer Ingelheim, 5 mg of meloxicam/mL). Blood samples are taken regularly during the 7 days following this injection. This is followed by a new wash-out period of 20 days. […] Blood samples are taken regularly during the 7 days following this injection. The blood samples obtained during this treatment campaign make it possible to evaluate the pharmacokinetic parameters (Cmax and AUC0-t) and a pharmacological parameter (useful life of the antibiotic) by conventional methods known by a person skilled in the art.

| SMILES | reference MIC90 (Mannheimia haemolytica [1]) [µg/mL] | reference MIC90 (Histophilus somni [2]) [µg/mL] | reference MIC90 (Pasteurella multocida [3]) [µg/mL] | Calculated antibiotic life (Mannheimia haemolytica [4]) [h] | Calculated antibiotic life (Pasteurella multocida [5]) [h] | Calculated antibiotic life (Histophilus somni [6]) [h] | AUC(0-t) ([7]; in vivo, 40 mg/kg) [µg·h/mL] | Cmax ([7]; in vivo, 40 mg/kg) [ng/mL] | AUC(0-t) ([7]; plasma, 0.5 mg/kg, read-out: AUC0-t of meloxicam in plasma) [µg·h/mL] | Cmax ([7]; plasma, 0.5 mg/kg, read-out: Cmax of meloxicam in plasma) [ng/mL] |
| --- | --- | --- | --- | --- | --- | --- | --- | --- | --- | --- |
| CS(=O)(=O)c1ccc([C@@H](O)[C@@H](CF)NC(=O)C(Cl)Cl)cc1 [Florfenicol, florfenicol] | 1 | 0.2 | 0.5 | 66.44 ± 20.65 | 132.03 ± 27.22 | 167.78 ± 0.13 | 196 ± 45 | 3500 ± 1040 | – | – |
| Cc1cnc(NC(=O)C2=C(O)c3ccccc3S(=O)(=O)N2C)s1 [Meloxicam, meloxicam] | – | – | – | – | – | – | – | – | 40.6 ± 7.12 | 2240 ± 357 |

Source: patent publication US20170304450A1, “PARENTERAL COMPOSITIONS AND USES THEREOF” (CEVA SANTE ANIMALE, priority 2014, published 2017)
